Blank lines part the entries; values can stand above or below the compound they belong to.
Legend:
[1] = Spectral (photophysical) properties of representative derivatives in DCM at room temperature; type: physicochemical; set-up: τf (fluorescent lifetime): unit not given here; conditions: for ΔStokes (Stokes shift=λem−λabs) / λabs (maximum absorption band more than 300 nm) / λem (excited at the longest maximum absorption band) / λex (excited wavelength) / τf (fluorescent lifetime) / ϕf (quantum yield): DCM, RM, 10−5M; for ϕf (quantum yield): quinine sulfate and rhodamine 6G as standard; for Effect of substituent on the fluorescent properties / emission: CH2Cl2 at RT
Source text: The photo-physical properties of representative salts are studied in CH2Cl2 at RT (FIG. 1).
The corresponding absorption, emission and excitation, spectra are depicted in FIGS. 3, 4 and 5. […] The compounds display good quantum yields upto 0.76.
a The maximum absorption bands more than 300 nm; b Excited at the longest maximum absorption band in CH2Cl2; ^cExcited wavelength; ^dStokes shift=λem−λabs; ^eQuinine sulfate and rhodamine 6G was used as the standard; ^fFluorescent lifetime
The current invention provides compounds that display brightly fluorescence as well as a good ϕf. The salts are a novel class of fluorescent materials that contain a pyridinium-oxazole functional group and the photo-physical properties of representative salts are studied in CH2Cl2 at RT The absorption and excitation maxima, the photoluminescence (PL) maxima and quantum yields (FF), as well as the excited state lifetimes (tf) of these compounds in CH2Cl2 solution are listed in Tables 3, whereas the corresponding absorption, emission, excitation spectra are depicted in FIGS. 3, 4 and 5. […] These observations are indicative of a predominant π-π* character for the lowest excited state, and the life time tf values are consistent with a singlet multiplicity. Most of these compounds display good quantum yields upto 0.76 (3n). The radiative rate constants are barely affected by the substitution pattern, an indication of the similar excited state character for all compounds.

[2] = system: MCF-7 cells; test: Localization and staining of mitochondria in living MCF-7 cells by fluorescence microscopy, with MitoTracker Green costaining; type: cell-based; conditions: 1 μM, 1 h
Description: MCF-7 cells were obtained from National Centre for Cell Science, Pune, India. For bio imaging purpose, the cells were seeded in a 6 well plate at a density of 10^5 cells/mL in Dulbecco's Modified Eagle's Medium+Ham's F12 containing 10% fetal bovine serum and a 0.1% antibiotic solution for 24 h at […] and 5% CO2 for adherence
MCF-7 cells (1×10^4 cells/mL/well) were seeded in a 6-well tissue culture plate for 48 h. The cells were then treated with 1 μM concentration of different organic molecules for 30 minutes. After thorough washing with 1×PBS (P^H 7.4), the cells are fixed used paraformaldehye (4% in PBS) for 15 minutes. Then cells were washed using 1×PBS twice. Further cells are permeated using 0.4% triton X in PBS for 30 seconds followed by treatment with 1 μg/mL of DAPI solution for 15 minutes. The cells are again ished twice with 1×PBS (P^H 7.4). Finally, a confocal fluorescence microscope (Nikon Eclipse: TE 2000-E, Japan). Bioimaging studies are carried out using red and green filters. (FIG. 2)
Cells are cultured and maintained as described above. Cells were treated with 1 μM compound for 30 min followed by washing with PBS. Further cells were treated with […] MG for 10 min and then washed with PBS. Cells were fixed and treated with DAPI as described above.
MCF-7 cells were incubated with 1 μM of 3n for 1 h, and excess dyes were washed away by buffer solution.

SMILES: F[B-](F)(F)F.c1ccc2c(c1)-c1cccc3oc(-c4cccc5ccccc45)c-2[n+]13
melting point: 198 to 200 °C

SMILES: Cc1ccc(-c2oc3cccc4[n+]3c2-c2ccccc2-4)cc1.F[B-](F)(F)F
melting point: 222 to 223 °C

SMILES: CC(C)c1ccc(-c2oc3cccc4[n+]3c2-c2ccccc2-4)cc1.F[B-](F)(F)F
melting point: 214 to 215 °C

SMILES: CCCCOc1ccc(-c2oc3cccc4[n+]3c2-c2ccccc2-4)cc1.F[B-](F)(F)F
melting point: 183 to 185 °C

SMILES: CCCCC(=O)c1ccc(-c2oc3cccc4[n+]3c2-c2ccccc2-4)cc1.F[B-](F)(F)F
melting point: 202 to 204 °C

SMILES: COc1ccccc1-c1oc2cccc3[n+]2c1-c1ccccc1-3.F[B-](F)(F)F
melting point: 228 to 229 °C

SMILES: Clc1cccc(-c2oc3cccc4[n+]3c2-c2ccccc2-4)c1.F[B-](F)(F)F
melting point: 204 to 206 °C

SMILES: Cc1cccc2c1-c1cccc3oc(-c4ccccc4)c-2[n+]13.F[B-](F)(F)F
melting point: 220 to 221 °C

SMILES: Cc1ccc2c(c1)-c1cccc3oc(-c4ccccc4)c-2[n+]13.F[B-](F)(F)F
melting point: 224 to 226 °C

SMILES: F[B-](F)(F)F.Fc1ccc2c(c1)-c1cccc3oc(-c4ccccc4)c-2[n+]13
melting point: 255 to 256 °C

SMILES: Clc1ccc2c(c1)-c1cccc3oc(-c4ccccc4)c-2[n+]13.F[B-](F)(F)F
melting point: 208 to 210 °C

SMILES: Clc1ccc2c(c1)-c1c(-c3ccccc3)oc3cccc-2[n+]13.F[B-](F)(F)F
melting point: 206 to 208 °C

SMILES: F[B-](F)(F)F.c1ccc(-c2oc3cccc4[n+]3c2-c2ccccc2-4)cc1 [3a, 1-phenylbenzo[a]oxazolo[4,3,2-cd]indolizin-10-ium tetrafluoroborate]
ΔStokes (Stokes shift=λem−λabs) [1]: 036 nm
λabs (maximum absorption band more than 300 nm) [1]: 368 nm
λem (excited at the longest maximum absorption band) [1]: 404 nm
λex (excited wavelength) [1]: 338 nm
τf (fluorescent lifetime) [1]: 1.2
ϕf (quantum yield) [1]: 0.10
melting point: 192 to 193 °C

SMILES: F[B-](F)(F)F.c1ccc2c(c1)-c1cccc3oc(-c4ccc5ccccc5c4)c-2[n+]13 [3c, 1-(naphthalen-2-yl)benzo[a]oxazolo[4,3,2-cd]indolizin-10-iumtetrafluoroborate]
Effect of substituent on the fluorescent properties / emission [1]: stronger effect on the fluorescent properties
ΔStokes (Stokes shift=λem−λabs) [1]: 071 nm
λabs (maximum absorption band more than 300 nm) [1]: 410 nm
λem (excited at the longest maximum absorption band) [1]: 481 nm
λex (excited wavelength) [1]: 364 nm
τf (fluorescent lifetime) [1]: 5.2
ϕf (quantum yield) [1]: 0.49

SMILES: F[B-](F)(F)F.c1ccc2c(c1)-c1cccc3oc(-c4cc5ccccc5c5ccccc45)c-2[n+]13 [3d, 1-(phenanthren-9-yl)benzo[a]oxazolo[4,3,2-cd]indolizin-10-ium tetrafluoroborate]
Effect of substituent on the fluorescent properties / emission [1]: stronger effect on the fluorescent properties
ΔStokes (Stokes shift=λem−λabs) [1]: 076 nm
λabs (maximum absorption band more than 300 nm) [1]: 411 nm
λem (excited at the longest maximum absorption band) [1]: 487 nm
λex (excited wavelength) [1]: 365 nm
τf (fluorescent lifetime) [1]: 7.2
ϕf (quantum yield) [1]: 0.54
melting point: 230 to 232 °C

SMILES: COc1ccc(-c2oc3cccc4[n+]3c2-c2ccccc2-4)cc1.F[B-](F)(F)F [3j, 1-(4-methoxyphenyl)benzo[a]oxazolo[4,3,2-cd]indolizin-10-ium tetrafluoroborate]
Effect of substituent on the fluorescent properties / emission [1]: only a modest effect on the fluorescent properties
ΔStokes (Stokes shift=λem−λabs) [1]: 053 nm
λabs (maximum absorption band more than 300 nm) [1]: 405 nm
λem (excited at the longest maximum absorption band) [1]: 458 nm
λex (excited wavelength) [1]: 338 nm
τf (fluorescent lifetime) [1]: 2.4
ϕf (quantum yield) [1]: 0.42
melting point: 190 to 192 °C

SMILES: F[B-](F)(F)F.Fc1ccc(-c2oc3cccc4[n+]3c2-c2ccccc2-4)cc1 [3l, 1-(4-fluorophenyl)benzo[a]oxazolo[4,3,2-cd]indolizin-10-ium tetrafluoroborate]
Effect of substituent on the fluorescent properties / emission [1]: only a modest effect on the fluorescent properties
ΔStokes (Stokes shift=λem−λabs) [1]: 042 nm
λabs (maximum absorption band more than 300 nm) [1]: 372 nm
λem (excited at the longest maximum absorption band) [1]: 414 nm
λex (excited wavelength) [1]: 343 nm
τf (fluorescent lifetime) [1]: 0.9
ϕf (quantum yield) [1]: 0.09
melting point: 254 to 255 °C

SMILES: Clc1ccc(-c2oc3cccc4[n+]3c2-c2ccccc2-4)cc1.F[B-](F)(F)F [3m, 1-(4-chlorophenyl)benzo[a]oxazolo[4,3,2-cd]indolizin-10-ium tetrafluoroborate]
ΔStokes (Stokes shift=λem−λabs) [1]: 040 nm
λabs (maximum absorption band more than 300 nm) [1]: 370 nm
λem (excited at the longest maximum absorption band) [1]: 410 nm
λex (excited wavelength) [1]: 339 nm
τf (fluorescent lifetime) [1]: 1.7
ϕf (quantum yield) [1]: 0.19
melting point: 274 to 275 °C

SMILES: CN(C)c1ccc(-c2oc3cccc4[n+]3c2-c2ccccc2-4)cc1.F[B-](F)(F)F [3n, 1-(4-(dimethylamino)phenyl)benzo[a]oxazolo[4,3,2-cd]indolizin-10-ium tetrafluoroborate]
ΔStokes (Stokes shift=λem−λabs) [1]: 049 nm
λabs (maximum absorption band more than 300 nm) [1]: 506 nm
λem (excited at the longest maximum absorption band) [1]: 555 nm
λex (excited wavelength) [1]: 511 nm
τf (fluorescent lifetime) [1]: 9.1
ϕf (quantum yield) [1]: 0.76
Staining / localization in mitochondria [2]: stains specifically the mitochondrial region
melting point: 242 to 244 °C

SMILES: COc1cccc(-c2oc3cccc4[n+]3c2-c2ccccc2-4)c1.F[B-](F)(F)F [3q, 1-(3-methoxyphenyl)benzo[a]oxazolo[4,3,2-cd]indolizin-10-ium tetrafluoroborate]
ΔStokes (Stokes shift=λem−λabs) [1]: 079 nm
λabs (maximum absorption band more than 300 nm) [1]: 376 nm
λem (excited at the longest maximum absorption band) [1]: 455 nm
λex (excited wavelength) [1]: 332 nm
τf (fluorescent lifetime) [1]: 2.0
ϕf (quantum yield) [1]: 0.20
melting point: 206 to 208 °C

melting point: 186 to 187 °C
SMILES: COc1ccc(Cl)c(-c2cc3ccccc3c3cccc(=O)n23)c1 [3y″, 6-(2-chloro-5-methoxyphenyl)-4H-pyrido[2,1-a]isoquinolin-4-one]

melting point: 194 to 195 °C
SMILES: Cc1ccc(/C=c2\c3ccccc3c3cccc(=O)n23)cc1Cl [3z″, (E)-6-(3-chloro-4-methylbenzylidene)pyrido[2,1-a]isoindol-4(6H)-one]
